According to patent US7741361B2, “Glucocorticoid mimetics, methods of making them, pharmaceutical compositions, and uses thereof” (Boehringer Ingelheim Pharmaceuticals, Inc., priority 2004, dated 2010):

System: glucocorticoid receptor
Test: Glucocorticoid receptor cell assays (agonist activity in one or more of the above assays)
Assay type: cell-based
Conditions: assay not specified
Procedure: B. Glucocorticoid Receptor Cell Assays
1. Induction of Aromatase in Fibroblasts (Cell Assay for Transactivation)
Dexamethasone, a synthetic ligand to the glucocorticoid receptor (GR), induces expression of aromatase in human foreskin fibroblast cells. The activity of aromatase is measured by the conversion of testosterone to estradiol in culture media.
Human foreskin fibroblast cells (ATCC Cat. No. CRL-2429, designation CCD112SK) are plated on 96 well plates at 50,000 cells per well 5 days before use, in Iscove's Modified Dulbecco's Media (GibcoBRL Life Technologies Cat No. 12440-053) supplemented with 10% charcoal filtered FBS (Clonetech Cat No. SH30068) and Gentamycin (GibcoBRL Life Technologies Cat. No. 15710-064). On the day of the experiment, the media in the wells is replaced with fresh media. Cells are treated with test compounds to final concentrations of 10^−5 M to 10^−8 M, and testosterone to a final concentration of 300 ng/mL. Each well has a total volume of 100 μL. Samples are made in duplicates. Control wells include: (a) wells that receive testosterone only, and (b) wells that receive testosterone plus 2 μM of dexamethasone to provide maximum induction of aromatase. Plates are incubated at 37° C. overnight (15 to 18 hours), and supernatants are harvested at the end of incubation. Estradiol in the supernatant is measured using ELISA kits for estradiol (made by ALPCO, obtained from American Laboratory Products Cat. No. 020-DR-2693) according to the manufacture's instruction. The amount of estradiol is inversely proportional to the ELISA signals in each well. The extent of aromatase induction by test compounds is expressed as a relative percentage to dexamethasone. EC50 values of test compounds are derived by non-linear curve fitting.
2. Inhibition of IL-6 Production in Fibroblasts (Cell Assay for Transrepression)
Human foreskin fibroblast cells produce IL-6 in response to stimulation by pro-inflammatory cytokine IL-1.
Human foreskin fibroblast cells (ATCC Cat. No. CRL-2429) are plated on 96 well plates at 5,000 cells per well the day before use, in Iscove's Modified Dulbecco's Media (GibcoBRL Life Technologies Cat. No. 12440-053) supplemented with 10% charcoal filtered FBS (Clonetech Cat. No. SH30068) and Gentamycin (GibcoBRL Life Technologies Cat. No. 15710-064). On the next day, media in the wells is replaced with fresh media. […] IL-6 levels in the supernatants are determined by the ELISA kits for IL-6 (MedSystems Diagnostics GmbH, Vienna, Austria, Cat. No. BMS213TEN) according to manufacture's instructions. […]
Evaluation of agonist or antagonist activity of compounds binding to the glucocorticoid receptor may be determined by any of the assays. […]

SMILES | activity as an agonist of the glucocorticoid receptor function
Cc1cc(C)c(S(=O)(=O)NC(Cc2c[nH]c3ccccc23)C(F)(F)F)c(C)c1 (stereo not shown) [2,4,6-Trimethyl-N-[2,2,2-trifluoro-1-(1H-indol-3-ylmethyl)ethyl]benzenesulfonamide] | activity as an agonist
Cc1cc(C)c(S(=O)(=O)NC(Cc2c[nH]c3ccc(C)cc23)C(F)(F)F)c(C)c1 (stereo not shown) [2,4,6-Trimethyl-N-[2,2,2-trifluoro-1-(5-methyl-1H-indol-3-ylmethyl)ethyl]benzenesulfonamide] | activity as an agonist
Nc1cc(Cl)cc(Cl)c1S(=O)(=O)NC(Cc1c[nH]c2ccccc12)C(F)(F)F (stereo not shown) [2-Amino-4,6-dichloro-N-[2,2,2-trifluoro-1-(1H-indol-3-ylmethyl)ethyl]benzenesulfonamide] | activity as an agonist
Cc1ccc2[nH]cc(CC(NS(=O)(=O)c3c(N)cc(Cl)cc3Cl)C(F)(F)F)c2c1 (stereo not shown) [2-Amino-4,6-dichloro-N-[2,2,2-trifluoro-1-(5-methyl-1H-indol-3-ylmethyl)ethyl]benzenesulfonamide] | activity as an agonist
